# According to US6399654B1, “Biflavanoids and derivatives thereof as antiviral agents” (priority 1995, dated 2002):
# Structures can show the parent of a compound that is named as a salt. Where two headings read alike, the source gives them in different places.
# What was measured:
# [1] = test system: Hepatitis B Virus (HBV); assay: Inhibition of HBV replication in 2.2.15 cells, extracellular (virion) HBV DNA; conditions: for SI (CC50/EC90), HBV Virion: selective index; for fold less active/potent than robustaflavone against HBV: in vitro assay against HBV;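 as to all read-outs here: extracellular virion HBV DNA in culture medium measured by slot blot hybridization with a 32P-labeled HBV probe, quantified against HBV DNA standards, after 9 days of daily dosing, compared with day 0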
# [2] = test system: Hepatitis B Virus (HBV); assay: HBV proteins and nucleic acids in 2.2.15 cells; assay type: cell-based; conditions: Day 9, 2.2.15 cells; robustaflavone @10 μM
# Method: Values of HBV proteins were determined by semi-quantitative EIA performed as previously described.^83 For the EIA analyses, test samples-were diluted (2- to 10-fold) so that the assay values produced were within the linear dynamic range of the EIA assays. Standard curves using serial dilutions of positive assay controls were included in each set of EIA analyses. HBV surface antigen ([…]), preSI protein, and HBc antigen ([…]) are released as extracellular products and were therefore analyzed in culture medium obtained 24 h following the last treatment dose of oligonucleotides or 2′, 3′-ddc. HBV core antigen (HBcAg) is an intracellular viral protein and was assayed in cell extracts produced by Triton-X-100 lysis.^83
# Cultures for HBV RNA were maintained on 6-well plates, cultures for HBV virion DNA analyses were maintained on either 96- or 24-well plates, and cultures for all other HBV parameters were maintained on 24-well plates.
# The concentrations of antiviral agents used in these studies approximates the EC50 values of the individual agents against intracellular HBV DNA replication intermediates (HBV RI). Cultures were treated with the indicated agents for 9 days using standard procedures. Values reported are the levels of the indicated HBV markers at the end of the treatment period (“DAY 9”) expressed as a percentage (±standard deviation (S.D.) of the average levels in the control cultures at the beginning of the treatment period (“DAY 0”). The method of expression permits an analysis of the variation of the HBV markers in the untreated (control) cultures over the course of the treatment period. HBV nucleic acid levels were measured by standard blot hydridization (dot, Southern, or Northern). HBV protein levels were measured by standard semi-quantitative EIA methods. Cultures for HBV RNA were maintained in 6-well culture plates. The levels of each of two major classes of HBV RNA transcripts are listed separately. Cultures for all other HBV markers were maintained in 24-well culture plates. For each treatment, a total of 4 separate cultures were used for the analysis of each HBV marker at both DAY 0 and DAY 9.
# Determination of Mechanism of Action. Measurements of intracellular and extracellular HBV DNA, 3.6 kb and 2.1 kb mRNA fragments, and HBsAg, HBeAg and HBcAg protein markers were conducted as previously described (93).
# [3] = test system: Hepatitis B Virus (HBV); assay: HBV replication intermediates (RI, intracellular HBV DNA) in 2.2.15 cells; assay type: cell-based
# Method: Test compounds were added daily for a nine continuous day period; the culture medium was collected and stored for analysis of extracellular (virion) HBV DNA after 0, 3, 6, and 9 days of treatment. The treated cells were lysed 24 hours following day 9 of treatment for the analysis of intracellular HBV genomic forms. The overall levels of HBV DNA (both extracellular and intracellular DNA) and the relative rate of HBV replication (intracellular DNA) were analyzed quantitatively. The analysis was performed using blot hybridization techniques and [^32P]-labeled HBV-specific probes. The HBV DNA levels were measured by comparison to known amounts of HBV DNA standards applied to every nitrocellulose membrane (gel or slot blot). An AMBIS beta scanner, which measures the radioactive decay of the hybridized probes directly from the nitrocellulose membranes, was used for the quantitative analysis. Standard curves, generated by multiple analyses, were used to correlate CPM measurements made by the beta scanner with relative levels of target HBV DNA. The levels of HBV virion DNA released into the culture medium were analyzed by a slot blot hybridization procedure. HBV DNA levels were then compared to those at day 0 to determine the effect of the test compound. A known positive drug was evaluated in parallel with test compounds in each test.
# [4] = target: T1, HIV-1 RT (Human immunodeficiency virus type 1 group M subtype B, UniProt P03366); assay: Anti-HIV-1 RT assay (recombinant enzyme); assay type: biochemical; conditions: for inhibition at 200 µg/mL: read-out: Anti-HIV-1 RT % Inhibition at 200 μg/ml
# T1 construct: made in house; host or cells: Escherichia coli
# [5] = test system: HCMV; assay: HCMV CPE inhibition in HFF cells; conditions: HFF Cells
# [6] = read-out: EC50 (50% effective dose), HBV Virion, 2.2.15 cells, extracellular (virion) HBV DNA, 9 days treatment
# [7] = read-out: EC90 (90% effective dose), HBV Virion, 2.2.15 cells, extracellular (virion) HBV DNA, 9 days treatment
# [8] = Anti-HIV-1 RT IC50, values in parentheses or in words
# [9] = values in parentheses or in words
# [10] = HIV-1 RT IC50 (50% inhibition dose)
compound,measurement,setting,value
"Nc1ccn([C@H]2CC[C@@H](CO)O2)c(=O)n1 [2′,3′-ddC, 2′,3′-dideoxycytosine, reference compound]",EC50,[1]; [6],1.8 µM
same,EC50,"[1]; read-out: EC50, concentration necessary to decrease HBV DNA levels by 50%, 2.2.15 cells, combinations: with respect to RF",1.4 µM
same,EC90,[1]; [7],94 µM
same,"SI (CC50/EC90), HBV Virion",[1],28
same,Viral Antigens: HBeAg,[2],88 ± 10 % of Day 0 Control
same,Viral Antigens: HBsAg,[2],90 ± 12 % of Day 0 Control
same,Viral Antigens: HbcAG,[2],91 ± 9 % of Day 0 Control
same,Viral DNA: Extracellular DNA,[2],1 ± 1 % of Day 0 Control
same,Viral DNA: Intracellular DNA,[2],6 ± 1 % of Day 0 Control
same,Viral mRNA: 3.6 kb and 2.1 kb mRNA (first column),[2],94 ± 7 % of Day 0 Control
same,Viral mRNA: 3.6 kb and 2.1 kb mRNA (second column),[2],87 ± 9 % of Day 0 Control
same,EC50,"[3]; 2.2.15 cells, read-out: EC50, HBV replication intermediates (RI) (intracellular DNA)",2.4 µM
"O=c1cc(-c2ccc(O)cc2)oc2cc(O)cc(O)c12 [Apigeriin, 4′,5,7-trihydroxyflavone, reference compound]",activity against HIV-1 RT (in words),[4],moderate activity
same,IC50,[4]; [8],443 µM
same,inhibition at 200 µg/mL,[4],72%
"COc1ccc(C2CC(=O)c3c(OC)cc(OC)c(C4C(=O)c5c(OC)cc(OC)cc5OC4c4ccc(OC)cc4)c3O2)cc1 (stereo not drawn) [GB-1a Me6(14), GB-1a hexamethyl ether]",activity against HIV-1 RT (in words),[4],inactive
same,Anti-HIV-1 RT IC50,[4]; [9],Inactive
"O=C1C[C@@H](c2ccc(O)cc2)Oc2c1c(O)cc(O[C@@H]1O[C@H](CO)[C@@H](O)[C@H](O)[C@H]1O)c2[C@H]1C(=O)c2c(O)cc(O)cc2O[C@@H]1c1ccc(O)cc1 [GB-1a glucoside (15), GB-1a 7″-O-b-glucoside]",activity against HIV-1 RT (in words),[4],no activity
same,Anti-HIV-1 RT % Inhibition at 200 μg/ml,[4],1.46%
same,Anti-HIV-1 RT IC50,[4]; [9],Inactive
"O=C1C[C@@H](c2ccc(O)c(O)c2)Oc2c1c(O)cc(O)c2[C@H]1C(=O)c2c(O)cc(O)cc2O[C@@H]1c1ccc(O)cc1 [GB-2a(16), GB-2a]",HIV-1 RT IC50 (50% inhibition dose),[4],94.6 µg/mL
same,Anti-HIV-1 RT % Inhibition at 200 μg/ml,[4],96%
same,IC50,"[4]; values in parentheses or in words, read-out: Anti-HIV-1 RT IC50",170 µM
"Nc1nc2c(ncn2COC(CO)CO)c(=O)[nH]1 [GVC, reference compound]",HCMV CPE Inhibition EC50,[5],0.4 µg/mL
"O=C1CC(c2ccc(O)cc2)Oc2cc(O)cc(O)c21 (stereo not drawn) [Naringenin, 4′,5,7-trihydroxyflavanone, reference compound]",activity against HIV-1 RT (in words),[4],slight inhibition
same,inhibition at 200 µg/mL,[4],34.9%
"CC(=O)Oc1ccc(-c2cc(=O)c3c(OC(C)=O)c(-c4cc(-c5cc(=O)c6c(OC(C)=O)cc(OC(C)=O)cc6o5)ccc4OC(C)=O)c(OC(C)=O)cc3o2)cc1 [Robustaflavone Hexaacetate, robustaflavone hexaacetate]",fold less active/potent than robustaflavone against HBV,[1],approximately three-fold
same,EC50,[1]; [6],0.73 µM
same,EC90,[1]; [7],2.8 µM
same,"SI (CC50/EC90), HBV Virion",[1],> 360
same,"SI (CC50/EC90), second value in parentheses","[3]; Table 2, value in parentheses, not explained",163
same,EC50,"[3]; Table 2, value in parentheses, not explained, read-out: EC50, second value in parentheses",3.9 µM
same,EC90,"[3]; Table 2, value in parentheses, not explained, read-out: EC90, second value in parentheses",11 µM
"COc1ccc(-c2cc(=O)c3c(OC)c(-c4cc(-c5cc(=O)c6c(OC)cc(OC)cc6o5)ccc4OC)c(OC)cc3o2)cc1 [Robustaflavone hexamethyl ether, hexa-O-methylrobustaflavone]",fold less active/potent than robustaflavone against HBV,[1],~10 fold
same,EC50,[1]; [6],2.9 µM
same,EC90,[1]; [7],28 µM
same,"SI (CC50/EC90), HBV Virion",[1],>36
"O=c1cc(-c2ccc(OS(=O)(=O)O)c(-c3c(OS(=O)(=O)O)cc4oc(-c5ccc(OS(=O)(=O)O)cc5)cc(=O)c4c3O)c2)oc2cc(OS(=O)(=O)O)cc(O)c12 [Robustaflavone tetrasulfate (17), robustaflavone-7,4′,7″,4′″-tetrasulfate K-salt]",IC50,[4]; [8],144 µM
same,IC50,[4]; [10],168 µM
same,inhibition at 200 µg/mL,[4],95.5%
same,anti-HBV activity (in words),[1]; 2.2.15 cells,extremely effective
same,EC50,"[1]; Hepatitis B virus, 216 h, read-out: EC50 (50% effective dose), HBV Virion, 2.2.15 cells, extracellular (virion) HBV DNA, 9 days treatment",0.4 µM
same,EC90,"[1]; Hepatitis B virus, 216 h, read-out: EC90 (90% effective dose), HBV Virion, 2.2.15 cells, extracellular (virion) HBV DNA, 9 days treatment",3.6 µM
same,"SI (CC50/EC90), HBV Virion",[1],110
"O=C1c2c(O)cc(O)cc2O[C@@H](c2ccc(O)cc2)[C@@H]1c1c(O)cc(O)c2c(=O)cc(-c3ccc(O)cc3)oc12 [Volkensiflavone (5), volkensiflavone]",activity against HIV-1 RT (in words),[4],weakly active
same,inhibition at 200 µg/mL,[4],45.3%
"COc1cccc2c1C(=O)c1c(O)c3c(c(O)c1C2=O)C[C@@](O)(C(C)=O)C[C@@H]3O[C@H]1C[C@H](N)[C@H](O)[C@H](C)O1 [daunomycin, reference compound]",IC50,[4]; [10],237 µM
"COc1ccc([C@@H]2Oc3cc(OC)cc(OC)c3C(=O)[C@H]2c2c(OC)cc(OC)c3c(=O)cc(-c4ccc(OC)c(OC)c4)oc23)cc1 [morelloflavone heptamethyl ether (8), morelloflavone heptamethyl ether]",activity against HIV-1 RT (in words),[4],inactive
